Data taken from patent US8101761B2, “(E)-N-{3-[1-(8-fluoro-11H-10-OXA-1-AZA-dibenzo [A,D] cyclohepten-5ylidene)-propyl]-phenyl}-methanesulfonamide as glucocorticoid receptor modulator for the treatment of rheumatoid arthritis” (Eli Lilly and Company, priority 2008, dated 2012).

How the values were obtained:
[1] = molecular target: T1, human progesterone receptor (PR) (Homo sapiens, UniProt P06401); test: Nuclear hormone receptor functional modulation assay (GRE-luciferase reporter, HEK293), PR; assay type: cell-based; conditions: agonist mode, mean of n=4 or 5
T1 construct: expressed in transfected cells; host or cells: HEK293, transient transfection, CMV promoter plasmid
T1 sequence (P06401 1-933): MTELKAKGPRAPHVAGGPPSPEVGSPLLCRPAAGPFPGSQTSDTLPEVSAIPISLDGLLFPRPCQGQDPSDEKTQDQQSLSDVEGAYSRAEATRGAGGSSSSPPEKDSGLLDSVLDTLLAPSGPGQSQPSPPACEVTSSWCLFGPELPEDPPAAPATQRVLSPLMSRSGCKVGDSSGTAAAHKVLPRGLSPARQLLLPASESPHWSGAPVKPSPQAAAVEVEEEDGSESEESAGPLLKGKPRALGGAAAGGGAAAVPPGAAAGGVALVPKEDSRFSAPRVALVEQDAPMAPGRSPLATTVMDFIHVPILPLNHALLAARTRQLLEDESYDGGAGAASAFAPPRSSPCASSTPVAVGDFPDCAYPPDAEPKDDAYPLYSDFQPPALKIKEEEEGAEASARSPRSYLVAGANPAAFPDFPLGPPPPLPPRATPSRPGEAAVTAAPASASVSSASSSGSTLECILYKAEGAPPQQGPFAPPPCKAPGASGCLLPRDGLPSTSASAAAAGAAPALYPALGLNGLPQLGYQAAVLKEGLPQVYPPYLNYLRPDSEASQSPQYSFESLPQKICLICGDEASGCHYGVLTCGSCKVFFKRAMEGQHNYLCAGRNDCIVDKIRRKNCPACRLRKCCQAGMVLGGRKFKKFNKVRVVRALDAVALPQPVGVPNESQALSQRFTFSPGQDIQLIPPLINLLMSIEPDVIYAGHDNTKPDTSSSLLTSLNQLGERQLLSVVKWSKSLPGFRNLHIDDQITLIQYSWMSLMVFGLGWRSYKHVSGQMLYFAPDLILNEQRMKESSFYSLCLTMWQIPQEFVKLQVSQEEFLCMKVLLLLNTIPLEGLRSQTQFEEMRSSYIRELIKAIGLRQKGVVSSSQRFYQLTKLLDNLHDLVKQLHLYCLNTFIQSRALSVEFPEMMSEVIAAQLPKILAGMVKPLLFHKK
Source text: The solvents, reagents, and ligands employed in the functional assay are readily available from commercial sources, or can be prepared by one of ordinary skill in the art.
Human embryonic kidney HEK293 cells are transfected with steroid hormone receptor and reporter gene plasmids using Fugene™ transfection reagent. Briefly, the reporter plasmid containing two copies of probasin ARE and TK(thymidine kinase) promoter upstream of the luciferase reporter cDNA, is transfected into HEK293 cells with a plasmid constitutively expressing human androgen receptor (AR) using viral CMV(cytomegalovirus) promoter. The reporter plasmid containing two copies of GRE and TK promoter upstream of the luciferase reporter cDNA is transfected with a plasmid constitutively expressing either human glucocorticoid receptor (GR), human mineralocorticoid receptor (MR), or human progesterone receptor (PR) using viral CMV promoter. […] After 24-hours incubation with test compounds, cells are lysed and luciferase activity is determined using standard techniques.
Data are fitted to a four parameter-fit logistic curve fit to determine EC50 values. […] IC50 values may be determined similarly using antagonist mode assay data. Percent inhibitions may also be determined relative to the response in the presence of agonist alone, as described above.

[2] = tested on: TNF-α production in PMA-differentiated U937 cells; test: GR-mediated transrepression: LPS-stimulated TNF-α production in PMA-differentiated U937 cells; assay type: cell-based, human
Protocol: 2. LPS-Stimulated TNF-α Production in PMA-Differentiated U937 Cells:
Human U937 pre-monocytic cells, obtained from ATCC, are grown in complete RPMI 1640 medium containing 10% FBS. To allow monocytes to differentiate to adherent macrophages, U937 cells are washed in calcium, magnesium free and resuspended in fresh RPMI medium containing 20 nM phorbol 12-myristate-13-acetate (PMA) overnight. After differentiation, test compounds are added to the cells in the 96-well plate at various concentrations ranging from about 4.65 pM to 4.64 μM. 1-hour post treatment with test compound, LPS is added at final concentration of 100 ng/ml and the reaction mixture is incubated overnight. 25 μl cell-free supernatant is transferred from each well to another 96-well plate and TNF-α production is measured using an ELISA kit with TNF-α being quantified by reading absorbance at 450 nm.

- efficacy in activating transcription, PR ([1]; relative to 30 nM promegestone): about 54%
- EC50 ([1]; read-out: EC50 in activating transcription, PR): > 10000 nM
- IC50 ([2]; Homo sapiens, U-937, LPS 100 ng/ml, average of n=4, read-out: IC50, inhibition of TNF-α expression): ~21 nM
SMILES: CC/C(=C1\c2ccc(F)cc2OCc2ncccc21)c1cccc(NS(C)(=O)=O)c1 [Compound (I), (E)-N-{3-[1-(8-Fluoro-11H-10-oxa-1-aza-dibenzo[a,d]cyclohepten-5-ylidene)-propyl]-phenyl}-methanesulfonamide]
- maximal inhibition of the endogenous expression of TNF-α ([2]; LPS 100 ng/ml, n=4): ≥ 90%
